Structures can show the parent of a compound that is named as a salt. One block for each compound: values may come before it.
Experiments:
[1] = molecular target: T1, iduronate-2-sulfatase (MPS-II enzyme) (Homo sapiens, UniProt P22304); experiment: MPS-II enzyme assay with dried blood spot punch, tandem mass spectrometry; assay type: biochemical
T1 construct: from tissue; host or cells: dried blood spot (3 mm punch)
T1 sequence (P22304 34-550): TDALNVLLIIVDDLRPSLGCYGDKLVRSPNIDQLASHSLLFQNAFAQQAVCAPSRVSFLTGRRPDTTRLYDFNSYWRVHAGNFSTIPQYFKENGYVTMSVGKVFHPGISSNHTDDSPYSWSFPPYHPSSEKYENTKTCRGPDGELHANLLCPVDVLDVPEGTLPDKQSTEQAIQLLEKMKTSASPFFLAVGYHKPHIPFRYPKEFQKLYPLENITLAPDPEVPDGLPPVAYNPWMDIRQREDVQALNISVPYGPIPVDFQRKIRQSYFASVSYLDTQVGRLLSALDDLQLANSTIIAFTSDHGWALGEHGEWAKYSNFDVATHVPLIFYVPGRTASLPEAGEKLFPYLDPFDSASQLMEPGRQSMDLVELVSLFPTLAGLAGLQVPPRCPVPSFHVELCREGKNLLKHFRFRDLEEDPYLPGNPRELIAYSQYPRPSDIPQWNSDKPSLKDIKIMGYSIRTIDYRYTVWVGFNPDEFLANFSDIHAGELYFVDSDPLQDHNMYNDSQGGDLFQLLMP
Experimental: The original and alternative MPS-II substrates were compared in side-by-side enzyme assays as follows: 1 mM substrate, 5 uM internal standard in 30 uL of buffer (100 mM ammonium formate, pH 4.0, 7.5 mM barium(II) acetate, 5.0 mM cerium(III) acetate). A 3 mm punch of a dried blood spot was added, and the mixtures were incubated with shaking for 16 hours at 37 deg C. The reactions were quenched by addition of 200 uL of 44 mM citric acid followed by addition of 400 uL ethyl acetate and 100 uL of water. After mixing up and down a few times with the pipet, the samples were centrifuged (10 min at 3000 rpm) to separate the liquid layers. A 200 uL portion of the upper ethyl acetate layer was transferred to a new well, and solvent was removed by evaporation with a stream of oil-free air. The residue was taken up in 100 uL of methanol/5 mM aqueous ammonium formate (80/20, v/v) and infused into the tandem mass spectrometer. The barium and cerium salts are present to precipitate free sulfate and phosphate present in the dried blood spot since these anions cause production inhibition of the MPS-II enzyme. The citric acid is used to acidify the mixture so that the carboxylate of the iduronic acid portion of the MPS-II product and internal standard is protonated and is extracted into ethyl acetate. […]

[2] = molecular target: T2, alpha-L-iduronidase (MPS-I enzyme) (Homo sapiens, UniProt P35475); experiment: MPS-I enzyme assay with dried blood spot punch, LC/MSMS; assay type: biochemical
T2 construct: from tissue; host or cells: dried blood spot (3 mm punch)
T2 sequence (P35475 28-653): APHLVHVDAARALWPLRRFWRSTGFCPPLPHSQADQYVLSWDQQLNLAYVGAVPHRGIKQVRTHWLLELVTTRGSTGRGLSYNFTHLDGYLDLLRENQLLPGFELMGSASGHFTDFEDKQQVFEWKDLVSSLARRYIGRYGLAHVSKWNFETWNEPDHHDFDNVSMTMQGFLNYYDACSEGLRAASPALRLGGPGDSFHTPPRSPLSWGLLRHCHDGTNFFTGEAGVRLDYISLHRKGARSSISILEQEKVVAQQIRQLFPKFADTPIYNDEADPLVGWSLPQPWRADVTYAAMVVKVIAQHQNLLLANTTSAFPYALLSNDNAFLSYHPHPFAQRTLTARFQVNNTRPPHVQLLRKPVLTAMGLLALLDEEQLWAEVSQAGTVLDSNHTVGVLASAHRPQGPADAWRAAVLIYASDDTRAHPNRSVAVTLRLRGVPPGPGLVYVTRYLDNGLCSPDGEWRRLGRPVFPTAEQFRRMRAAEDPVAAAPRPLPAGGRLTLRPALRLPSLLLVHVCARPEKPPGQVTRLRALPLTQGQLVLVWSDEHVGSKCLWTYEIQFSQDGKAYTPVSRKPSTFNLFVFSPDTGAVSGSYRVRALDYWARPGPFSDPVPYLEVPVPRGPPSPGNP
Experimental: The original and alternative MPS-I substrates were compared in side-by-side enzyme assays as follows: 0.5 mM substrate, 3.5 uM internal standard in 30 uL of buffer (100 mM ammonium formate, pH 4.0). A 3 mm punch of a dried blood spot was added, and the mixtures were incubated with shaking for 16 hours at 37 deg C. The reactions were quenched by addition 120 uL of acetonitrile. The wells were centrifuged, and 120 uL of supernatant was transferred to a new well. The sample was diluted by addition of 120 uL of water, and 10 uL was injected onto the LC/MSMS system. The LC and MS/MS conditions are as published (Spacil, Z., Tatipaka, H., Barcenas, M., Scott, C. R., Turecek, F., Gelb, M. H. (2012) “High-Throughput Assay of 9 Lysosomal Enzymes for Newborn Screening.” Clinical Chemistry., 59 (3), […]). A blank assay is also carried out in which a blood-free 3 mm punch of filter paper is substituted for the dried blood spot. The blank is incubated and processed as above.

[3] = test system: N-acetylgalactosamine-6-sulfatase (GALNS); experiment: GALNS (MPS-IVA) assay with beta-NGA and Z-PUG-NAc, UHPLC-MS/MS; assay type: biochemical, human
Experimental: (§1) Experiment 1. A 3 mm punch of a dried blood spot from a random newborn is incubated with 0.03 mL of assay cocktail consisting of 1 mM GALNS substrate in 50 mM ammonium formate pH 4.0 containing 7.5 mM barium acetate, 5.0 mM cerium acetate, 1 mM Z-PUG-NAc, and 0.01 mg of bacterial beta-N-acetylgalactosaminidase. The mixture also contains 0.005 mM internal standard. After 16 hrs at 37° C. with shaking, the mixture is quenched with 0.12 mL of acetonitrile and the sample plate is centrifuged to pellet the precipitate. Supernatant (0.12 mL) is transferred to a new plate, and 0.12 mL of water is added. The plate is placed on the autosampler of the UHPLC-MS/MS instrument (Waters Xevo TQ MS/MS with a Waters Acquity UHPLC system). A portion of the sample (0.01 mL) is injected, and the GALNS product (substrate minus sulfate), the internal standard, and the aglycones derived from the GALNS product and internal standard are quantified by multiple reaction monitoring (MS/MS). Note the internal standard added, like the GALNS product, is converted to its aglycone by the addition of bacterial beta-N-acetylgalactosaminidase.
(§2) Experiment 2. Experiment 2 is the same as Experiment 1 but uses a punch of filter paper (no blood). Most of the internal standard is converted to the aglycone showing that the added beta-NGA is working. The amount of aglycone is only 42,000, about 10-fold lower than that seen in the presence of blood. […] Furthermore when a dried blood spot from a confirmed Morquio A patient is used, the amount of aglycone is similar to that seen in the absence of blood (45,000) showing that the assay is working to detect only the GALNS present in blood from a non-affected individual.
(§3) Experiment 3. […] As expected, most of the internal standard is not converted to its aglycone, because is no beta-NAG and any hexosaminidase A coming from the blood is blocked by Z-PUG-NAc. The amount of GALNS product is 121,000 and the amount of aglycone is 42,900.
(§4) Experiment 4. Experiment 4 is the same as Experiment 3, but without blood. […] Thus, most of the 121,000 product counts in Experiment 3 is due to GALNS. The product counts in Experiment 3 cannot be due to hexosaminidase A, because only beta-NGA generates the aglycone. The amount of aglycone in Experiments 3 and 4 are similar, and this represents aglycone present in the GALNS substrate as a contaminant.
(§5) Experiment 5. […] Most of the internal standard is converted to its aglycone as expected because beta-NGA is present. The signal for aglycone is 1,350,000, much larger than in Experiment 1.
(§6) Experiment 6. Experiment 6 contains blood but no beta-NGA and no Z-PUG-NAc. The amount of GALNS product is 110,000 instead of 25,100 as in Experiment 5, which is due to the action of GALNS on the GALNS substrate. Because beta-NGA is absent, only a small amount of GALNS product is converted to aglycone, but the amount of aglycone remains high at 1,110,000. This is because of the action of hexosaminidase A in the blood on GALNS substrate in the absence of Z-PUG-NAc.
(§7) Experiments 7 and 8. Experiments 7 and 8 are with filter paper (no blood). […] As expected, most of the internal standard is converted to aglycone in Experiment 7, but not in Experiment 8. […] These can be removed by a further round of purification of GALNS substrate.

[4] = molecular target: T3, N-acetylgalactosamine-6-sulfatase (GALNS) (Homo sapiens, UniProt P34059); experiment: as above; assay type: biochemical
T3 construct: Representative assays use dried blood spots on newborn screening cards as a source of GALNS; from tissue; host or cells: dried blood spot from a random newborn (3 mm punch)
T3 sequence (P34059 27-522): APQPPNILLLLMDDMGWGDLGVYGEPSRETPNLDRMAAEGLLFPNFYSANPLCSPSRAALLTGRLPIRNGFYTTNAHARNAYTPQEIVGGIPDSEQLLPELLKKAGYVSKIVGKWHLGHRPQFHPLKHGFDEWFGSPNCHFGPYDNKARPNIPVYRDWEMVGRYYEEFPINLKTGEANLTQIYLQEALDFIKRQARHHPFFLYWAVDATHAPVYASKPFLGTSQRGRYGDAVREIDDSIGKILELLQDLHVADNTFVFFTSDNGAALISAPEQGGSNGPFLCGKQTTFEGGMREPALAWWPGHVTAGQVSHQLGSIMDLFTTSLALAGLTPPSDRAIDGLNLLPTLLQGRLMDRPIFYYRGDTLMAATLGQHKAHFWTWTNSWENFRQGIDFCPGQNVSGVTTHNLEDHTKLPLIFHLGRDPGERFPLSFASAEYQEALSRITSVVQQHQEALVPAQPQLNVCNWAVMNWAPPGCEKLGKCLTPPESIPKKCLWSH
Experimental: as §1, §2, §3, §4, §5, §6, §7

[5] = activity with dried blood spot punch to that with blood-free punch
[6] = Expt. 1: 3 mm dried blood spot punch, 1 mM Z-PUG-NAc, 0.01 mg beta-NGA
[7] = Expt. 2: 3 mm filter paper punch (no blood), 1 mM Z-PUG-NAc, 0.01 mg of bacterial enzyme
[8] = Expt. 3: 3 mm dried blood spot punch, 1 mM Z-PUG-NAc, no beta-NGA
[9] = Expt. 4: 3 mm filter paper punch (no blood), 1 mM Z-PUG-NAc, no beta-NGA
[10] = Expt. 5: 3 mm dried blood spot punch, 0.01 mg beta-NGA, no Z-PUG-NAc
[11] = Expt. 6: 3 mm dried blood spot punch, Nothing added (no beta-NGA, no Z-PUG-NAc)
[12] = Expt. 7: 3 mm filter paper punch (no blood), 0.01 mg beta-NGA, no Z-PUG-NAc
[13] = Expt. 8: 3 mm filter paper punch (no blood), Nothing added

Enzymatic Activity ([1]; 1 mM substrate, 3 mm dried blood spot punch, pH 4.0, 16 hours at 37 deg C): 6 umole/hr/L blood
blood-no blood assay ratio [1, 5]: 53
SMILES: CCCCC(=O)N(CCCCCCNC(=O)c1ccccc1)CCC(=O)Nc1ccc(OC2OC(C(=O)O)C(O)C(O)C2OS(=O)(=O)O)cc1 (stereo not shown) [Alternative MPS-II]

Enzymatic Activity ([2]; 0.5 mM substrate, 3 mm dried blood spot punch, pH 4.0, 16 hours at 37 deg C): 2.5 umole/hr/L blood
blood-no blood assay ratio [2, 5]: 34
SMILES: CC(=O)N(CCCCCCNC(=O)c1ccccc1)CCC(=O)Nc1ccc(OC2OC(C(=O)O)C(O)C(O)C2O)cc1 (stereo not shown) [Alternative MPS-I]

GALNS internal standard peak area [3, 6]: 278
internal standard aglycone peak area [3, 6]: 54,400
GALNS internal standard peak area [3, 7]: 3,290
internal standard aglycone peak area [3, 7]: 15,900
GALNS internal standard peak area [3, 8]: 23,500
internal standard aglycone peak area [3, 8]: 940
GALNS internal standard peak area [3, 9]: 14,700
internal standard aglycone peak area [3, 9]: 412
GALNS internal standard peak area [3, 10]: 852
internal standard aglycone peak area [3, 10]: 49,200
GALNS internal standard peak area [3, 11]: 17,900
internal standard aglycone peak area [3, 11]: 17,100
GALNS internal standard peak area [3, 12]: 1,920
internal standard aglycone peak area [3, 12]: 22,200
GALNS internal standard peak area [3, 13]: 12,100
internal standard aglycone peak area [3, 13]: 648
SMILES: [2H]c1c([2H])c([2H])c(C(=O)NCCCCCN(CCC(=O)Nc2ccc(OC3OC(CO)C(O)C(O)C3NC(C)=O)cc2)C(=O)CCCC)c([2H])c1[2H] (stereo not shown) [GALNS internal standard]

SMILES: CCCCC(=O)N(CCCCCNC(=O)c1ccccc1)CCC(=O)Nc1ccc(OC2OC(COS(=O)(=O)O)C(O)C(O)C2NC(C)=O)cc1 [GALNS substrate, Sodium ((2R,3R,4R,5R,6S)-5-acetamido-6(4(3(N (5-benzamidopentyl)-pentanamido)propanamido)phenoxy)-3,4-dihydroxytetrahydro-2H-pyran-2-yl)methyl sulfate]
GALNS product (substrate without sulfate) peak area [3, 7]: 422
aglycone peak area (product without sugar) [3, 7]: 42,000
aglycone peak area (product without sugar) [3, 8]: 42,900
GALNS product (substrate without sulfate) peak area [3, 9]: 753
aglycone peak area (product without sugar) [3, 9]: 22,700
aglycone peak area (product without sugar) [3, 10]: 1,350,000
aglycone peak area (product without sugar) [3, 11]: 1,110,000
GALNS product (substrate without sulfate) peak area [3, 12]: 253
aglycone peak area (product without sugar) [3, 12]: 19,800
GALNS product (substrate without sulfate) peak area [3, 13]: 820
aglycone peak area (product without sugar) [3, 13]: 14,500
amount of aglycone (peak area) ([3]; dried blood spot from a confirmed Morquio A patient, 1 mM Z-PUG-NAc, 0.01 mg beta-NGA): 45,000
GALNS product (substrate without sulfate) peak area [4, 6]: 46,100
aglycone peak area (product without sugar) [4, 6]: 411,000
GALNS product (substrate without sulfate) peak area [4, 8]: 121,000
GALNS product (substrate without sulfate) peak area [4, 10]: 25,100
GALNS product (substrate without sulfate) peak area [4, 11]: 110,000

— patent US10196668B2, “Reagents and methods for screening MPS I, II, IIIA, IIIB, IVA, VI, and VII” (University of Washington through its Center for …, priority 2013, dated 2019)
